Laboratory results taken from patent US7122533B2, “Cosalane compounds and methods for their use” (The United States of America as represented by the …, priority 1999, dated 2006).
Read-outs that look alike come from different tables or passages of the source.

Experiments:
Format in all cases: cell-based
[1] = test system: human monocytes (acetylated RANTES-induced migration); assay: monocyte migration induced by acetylated (modified) RANTES; details: acetylated RANTES 50–1000 ng/mL, FIG. 6
Experimental: (§1) Monocyte chemotaxis was performed as previously described [Wang (1993) J. Immunol. 150:3022–3029]. Briefly, monocytes were resuspended in binding media (RPMI-1640 media containing 1% BSA, 25 mM HEPES, pH 8.0) at 1–2×10^6 cells/ml. Chemokines, diluted in binding media, were mixed with cosalane or the indicated cosalane analog and placed in the lower wells of a micro-chemotaxis chamber (Neuro Probe, Cabin John, Md.). Five micrometer polyvinyl-free polycarbonate membranes were placed over the chemokine mixtures. After the micro-chemotaxis chamber was assembled, 50 μl of cells were placed in the upper wells. The filled chemotaxis chambers were incubated in a humidified CO2 incubator for 90 minutes.
(§2) After incubating, the membranes were removed from the chemotaxis chamber assembly followed by gently removing the cells from the upper side of the membrane. Then cells on the lower side of the membrane were stained.
The number of cells migrating to the chemokine mixtures was determined for binding media alone, and chemokine treated and untreated cells. HEK-293 cells transfected to express human CCR1, CCR3 or CCR5 receptors were resuspended in binding media at 7.5×10^5 cells/ml. Ten μm polyvinyl-free polycarbonate membranes (Neuro Probe) were treated with 47 ug/ml rat tail collagen type 1 (Collaborative Biomedical Products, Bedford, Md.) in RPMI-1640 overnight, dried and placed over the chemoattractants. The assembled chemotaxis chambers were incubated in a humidified CO2 incubator for 5.5–6 hours. After the incubation, the membranes were removed from the chemotaxis chamber assembly followed by gently removing cells from the upper side of the membrane. The stained and dried membrane was mounted and the cells on the underside of the membrane were counted at 200× magnification. The results are reported as the average number of cells per high powered field at a given chemokine concentration±standard deviation. […]

human CCR1 [2] = target: T1, human CCR1 (Homo sapiens, UniProt P32246); assay: MIP1α-induced migration of CCR1 transfectants; details: compound at 1 μM, data not shown
T1 construct: expressed in transfected cells; host or cells: HEK-293
T1 sequence (P32246 1-355): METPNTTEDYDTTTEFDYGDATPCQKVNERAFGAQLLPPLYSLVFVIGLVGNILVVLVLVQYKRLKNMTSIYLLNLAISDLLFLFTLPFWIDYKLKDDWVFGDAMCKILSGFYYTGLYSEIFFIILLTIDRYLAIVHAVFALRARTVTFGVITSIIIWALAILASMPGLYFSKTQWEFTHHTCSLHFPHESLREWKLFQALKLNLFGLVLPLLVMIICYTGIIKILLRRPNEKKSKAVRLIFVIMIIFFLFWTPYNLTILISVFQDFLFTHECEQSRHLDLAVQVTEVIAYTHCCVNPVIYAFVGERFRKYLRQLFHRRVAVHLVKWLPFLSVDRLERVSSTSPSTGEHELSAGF
Experimental: (§3) Human embryonic kidney cells 293 (HEK-293) transfected to express human CCR1, CCR3, or CCR5 receptors were cultured in Dulbecco's Modified Eagles Medium (DMEM, Biowhiftaker, Walkersville, Md.) containing 10% Fetal Bovine Serum (FBS, Hyclone, Logan, Utah), 2 mM glutamine and 100 U/ml penicillin and streptomycin (Quality Biologicals, Gaithersburg, Md.). Peripheral blood mononuclear cells were isolated from fresh normal donor apheresis packs by centrifugation over Ficoll. Monocytes were enriched by 85–95% using percoll fractionation (Pharmacia, Piscataway, N.J.).
(§4) The number of cells migrating to the chemokine mixtures was determined for binding media alone, and chemokine treated and untreated cells. HEK-293 cells transfected to express human CCR1, CCR3 or CCR5 receptors were resuspended in binding media at 7.5×10^5 cells/ml. Ten μm polyvinyl-free polycarbonate membranes (Neuro Probe) were treated with 47 ug/ml rat tail collagen type 1 (Collaborative Biomedical Products, Bedford, Md.) in RPMI-1640 overnight, dried and placed over the chemoattractants. The assembled chemotaxis chambers were incubated in a humidified CO2 incubator for 5.5–6 hours. After the incubation, the membranes were removed from the chemotaxis chamber assembly followed by gently removing cells from the upper side of the membrane. The stained and dried membrane was mounted and the cells on the underside of the membrane were counted at 200× magnification. The results are reported as the average number of cells per high powered field at a given chemokine concentration±standard deviation.
(§5) The ability of compound 3 to inhibit RANTES-induced migration of human embryonic kidney (HEK) cells transfected to express individual chemokine receptors was initially tested. Although the cosalane analog 3 (1 μM) had no effect on RANTES-induced migration of CCR5 transfectants, it inhibited 50% of RANTES-induced CCR1 transfectant migration (FIG. 2). In contrast, the MIP1α- and MIP1β-induced migration of CCR1 transfectants was not inhibited by compounds 1, 2 or 3 when tested at concentrations of 1 μM (data not shown).

human CCR3 = target: T2, human CCR3 (Homo sapiens, UniProt P51677); assay: eotaxin-induced CCR3/HEK-293 cell migration; details: eotaxin-induced CCR3/HEK-293 migration, figures
T2 construct: expressed in transfected cells; host or cells: HEK-293
T2 sequence (P51677 1-355): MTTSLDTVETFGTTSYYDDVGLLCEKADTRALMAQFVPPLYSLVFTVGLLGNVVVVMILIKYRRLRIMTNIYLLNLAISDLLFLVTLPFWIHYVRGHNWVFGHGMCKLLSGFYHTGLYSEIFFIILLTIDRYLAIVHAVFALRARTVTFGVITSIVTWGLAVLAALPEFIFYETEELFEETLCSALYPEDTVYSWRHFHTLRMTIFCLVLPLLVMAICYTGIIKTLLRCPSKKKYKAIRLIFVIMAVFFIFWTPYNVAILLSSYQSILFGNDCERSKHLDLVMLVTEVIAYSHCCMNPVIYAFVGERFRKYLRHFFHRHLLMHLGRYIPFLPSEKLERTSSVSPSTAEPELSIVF
Experimental: as §3, §4

human CCR1 [3] = target: T1, human CCR1; assay: RANTES-induced CCR1/HEK-293 transfectant migration
Experimental: as §3, with “Ficoll.” for “Ficoll. Monocytes were enriched by 85–95% using percoll fractionation (Pharmacia, Piscataway, N.J.).”
as §4, with “magnification.” for “magnification. The results are reported as the average number of cells per high powered field at a given chemokine concentration±standard deviation.”

human CCR1 [4] = target: T1, human CCR1; assay: MIP1β-induced migration of CCR1 transfectants; details: compound at 1 μM, data not shown
Experimental: as §3, §4, §5

[5] = test system: human monocytes (RANTES-induced migration); assay: RANTES-induced monocyte migration (micro-chemotaxis chamber); details: for IC50: Homo sapiens, Monocyte, ≦ 5% standard error, NA = not active; for activity as inhibitors of RANTES-induced migration: discussion of Table 1
Experimental: as §3, §1, §2, §4

[6] = test system: MCP-4/CCR2-mediated monocyte migration; assay: MCP-4-induced human monocyte migration; details: FIG. 3
Experimental: as §1, §2, §4
Although MCP-4 is known to bind to CCR2 and CCR3, fresh primary human monocytes only express high levels of CCR2.

[7] = test system: human monocytes (MIP1-α-induced migration); assay: MIP1-α-induced monocyte migration; details: compound at 1 μM, chemokine at 2.5 ng/ml, data not shown
Experimental: as §1, with “Chemokines, diluted in binding media, were mixed with cosalane or the indicated cosalane analog and placed in the lower wells of a micro-chemotaxis chamber (Neuro Probe, Cabin John, Md.).” left out
as §2
as §4, with “magnification.” for “magnification. The results are reported as the average number of cells per high powered field at a given chemokine concentration±standard deviation.”
(§6) It is noted that both MIP1-α and MIP1-β are ligands for CCR1, CCR5, and D6 (8).

[8] = test system: human monocytes (MIP1-β-induced migration); assay: MIP1-β-induced monocyte migration; details: compound at 1 μM, chemokine at 2.5 ng/ml, data not shown
Experimental: as §1, with “Chemokines, diluted in binding media, were mixed with cosalane or the indicated cosalane analog and placed in the lower wells of a micro-chemotaxis chamber (Neuro Probe, Cabin John, Md.).” left out
as §2
as §4, with “magnification.” for “magnification. The results are reported as the average number of cells per high powered field at a given chemokine concentration±standard deviation.”
as §6

[9] = ≦ 5% standard error, NA = not active, read-out: IC50 (μM) RANTES-Induced CCRI/HEK Migration

SMILES | inhibition of CCL11 (eotaxin) interaction with CCR3 (human CCR3) | IC50 (human CCR1 [3]; [9]) [µM] | IC50 [5] [µM] | activity as inhibitors of RANTES-induced migration [5] | also measured
CC(C)CCC[C@@H](C)[C@H]1CC[C@H]2[C@@H]3CC[C@H]4C[C@@H](CCC=C(c5cc(Cl)c(O)c(C(=O)O)c5)c5cc(Cl)c(O)c(C(=O)O)c5)CC[C@]4(C)[C@H]3CC[C@]12C [Compound 1, cosalane] | inhibit | 0.26 | 0.76 |  | inhibition of the activity of modified (acetylated) RANTES to attract monocytes ([1]; 30 μM compound): not inhibited; inhibition of MIP1α-induced migration of CCR1 transfectants (human CCR1 [2]): not inhibited; inhibition of MIP1β-induced migration of CCR1 transfectants (human CCR1 [4]): not inhibited; block of MCP-4/CCR2-mediated monocyte migration [6]: block
CC(C)CCCC(C)[C@H]1CCC2C3CCC4C[C@@H](CCC=C(c5cc(Cl)c(OCc6cccc(C(=O)O)c6)c(C(=O)O)c5)c5cc(Cl)c(OCc6cccc(C(=O)O)c6)c(C(=O)O)c5)CC[C@]4(C)C3CC[C@@]21C (stereo partly drawn) [Compound 2] | inhibit | 10 | 10 | retain activity | inhibition of MIP1α-induced migration of CCR1 transfectants (human CCR1 [2]): not inhibited; inhibition of MIP1β-induced migration of CCR1 transfectants (human CCR1 [4]): not inhibited; inhibition of MIP1-α-induced monocyte migration [7]: not reduced; inhibition of MIP1-β-induced monocyte migration [8]: very weak inhibitor; reduction in cell numbers, MIP1-β-induced monocyte migration [8]: less than 10%; block of MCP-4/CCR2-mediated monocyte migration [6]: block
CC(C)CCCC(C)C1CCC2C3CCC4CC(CCC=C(c5cc(Cl)c(OCc6ccc(C(=O)O)cc6)c(C(=O)O)c5)c5cc(Cl)c(OCc6ccc(C(=O)O)cc6)c(C(=O)O)c5)CCC4(C)C3CCC12C (stereo not drawn) [Compound 5] |  |  |  | inactive | inhibition of the activity of modified (acetylated) RANTES to attract monocytes ([1]; 10 μM compound): no statistical difference; inhibition of MIP1-α-induced monocyte migration [7]: neither MiP1-α- nor MIP1-β-induced monocyte migration was inhibited; inhibition of MIP1-β-induced monocyte migration [8]: neither MiP1-α- nor MIP1-β-induced monocyte migration was inhibited
CC(C)CCCC(C)[C@H]1CCC2C3CCC4C[C@@H](CCC=C(c5cc(Cl)c(OCc6ccc(-c7cccc(C(=O)O)c7)cc6)c(C(=O)O)c5)c5cc(Cl)c(OCc6ccc(-c7cccc(C(=O)O)c7)cc6)c(C(=O)O)c5)CC[C@]4(C)C3CC[C@@]21C (stereo partly drawn) [Compound 6] |  | 9.1 | 3 | retain activity | 
CC(C)CCCC(C)[C@H]1CCC2C3CCC4C[C@@H](CCC=C(c5cc(Cl)c(OCc6cccc([N+](=O)[O-])c6)c(C(=O)O)c5)c5cc(Cl)c(OCc6cccc([N+](=O)[O-])c6)c(C(=O)O)c5)CC[C@]4(C)C3CC[C@@]21C (stereo partly drawn) [Compound 7] |  |  | 3.5 | retain activity | IC50 (human CCR1 [3]): 5.7 µM
CC(C)CCCC(C)[C@H]1CCC2C3CCC4C[C@@H](CCC=C(c5cc(Cl)c(OCc6cccc(B(O)O)c6)c(C(=O)O)c5)c5cc(Cl)c(OCc6cccc(B(O)O)c6)c(C(=O)O)c5)CC[C@]4(C)C3CC[C@@]21C (stereo partly drawn) [Compound 9] | inhibit | 4 | 2.2 |  | 
CC(C)CCCC(C)[C@H]1CCC2C3CCC4C[C@@H](CCC=C(c5cc(Cl)c(O)c(C(=O)NCC(=O)O)c5)c5cc(Cl)c(O)c(C(=O)NCC(=O)O)c5)CC[C@]4(C)C3CC[C@@]21C (stereo partly drawn) [Compound 12] |  |  |  |  | IC50 (human CCR1 [3]): 10 µM
CSCC[C@H](NC(=O)c1cc(C(=CCC[C@H]2CC[C@@]3(C)C(CCC4C3CC[C@@]3(C)C4CC[C@@H]3C(C)CCCC(C)C)C2)c2cc(Cl)c(O)c(C(=O)N[C@@H](CCSC)C(=O)O)c2)cc(Cl)c1O)C(=O)O (stereo partly drawn) [Compound 15] |  |  | 0.82 | retained activity | 
